Data as given in paper PMC7655109, “High-resolution structures of multiple 5-HT3AR-setron complexes reveal a novel mechanism of competitive inhibition” (eLife, 2020).

What was measured:
Format in all cases: cell-based
[1] = biological target: T1, 5-HT3AR (serotonin (3) receptor subunit A, homopentamer) (Mus musculus, UniProt P23979); assay: cryo-EM structure ([…] Å); also TEVC inhibition of serotonin currents in oocytes
T1 construct: gene Htr3a; full-length, C-terminal 1D4-tag and four N-terminal strep-tags; modelled Thr7–Leu335 and Leu397–Ser462
T1 sequence (P23979 34-483 isoform P23979-2): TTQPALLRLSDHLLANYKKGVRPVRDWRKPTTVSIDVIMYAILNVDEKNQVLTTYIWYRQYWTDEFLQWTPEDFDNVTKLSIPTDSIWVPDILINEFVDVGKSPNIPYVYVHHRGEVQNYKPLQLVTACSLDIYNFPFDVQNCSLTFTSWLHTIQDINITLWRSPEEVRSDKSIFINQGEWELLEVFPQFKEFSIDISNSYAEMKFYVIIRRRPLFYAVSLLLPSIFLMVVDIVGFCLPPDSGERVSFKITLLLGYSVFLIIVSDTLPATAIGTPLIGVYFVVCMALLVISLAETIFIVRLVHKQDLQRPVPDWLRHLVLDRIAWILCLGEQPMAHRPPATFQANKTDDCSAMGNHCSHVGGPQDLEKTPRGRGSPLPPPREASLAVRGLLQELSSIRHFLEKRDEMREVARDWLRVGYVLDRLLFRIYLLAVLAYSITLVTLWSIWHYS

[2] = biological target: T2, 5-HT3AR (serotonin (3) receptor subunit A, homopentamer) (Mus musculus, UniProt P23979); assay: two-electrode voltage clamp in oocytes, inhibition of serotonin-induced current on co-application
T2 construct: gene Htr3a; 5-HT3AR expressed in Xenopus laevis oocytes
T2 sequence (P23979 24-489): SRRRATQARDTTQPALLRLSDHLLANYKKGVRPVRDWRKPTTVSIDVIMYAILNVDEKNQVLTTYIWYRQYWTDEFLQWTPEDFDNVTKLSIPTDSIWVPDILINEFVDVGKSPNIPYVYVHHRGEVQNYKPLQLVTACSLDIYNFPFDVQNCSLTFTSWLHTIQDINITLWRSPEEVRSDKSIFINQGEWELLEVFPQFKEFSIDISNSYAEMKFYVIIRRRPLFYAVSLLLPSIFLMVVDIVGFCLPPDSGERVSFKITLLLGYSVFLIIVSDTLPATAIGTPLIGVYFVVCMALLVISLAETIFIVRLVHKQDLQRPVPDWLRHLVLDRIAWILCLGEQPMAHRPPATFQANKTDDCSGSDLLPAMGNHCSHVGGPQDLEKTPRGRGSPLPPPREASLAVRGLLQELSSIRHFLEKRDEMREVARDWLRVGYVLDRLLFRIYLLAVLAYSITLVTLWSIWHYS

[3] = biological target: T1, 5-HT3AR (serotonin (3) receptor subunit A, homopentamer); assay: cryo-EM structure ([…] Å); also TEVC inhibition of serotonin currents in oocytes; remark: listed apart in the source
[4] = biological target: T1, 5-HT3AR (serotonin (3) receptor subunit A, homopentamer); assay: as above; remark: listed apart in the source

O=C1c2cccc3c2[C@H](CCC3)CN1[C@@H]1CN2CCC1CC2 [palonosetron]
cryo-EM structure (3.32 Å); also TEVC inhibition of serotonin currents in oocyte [1]: ~ 1 nM

CN1C2CCCC1CC(NC(=O)c1nn(C)c3ccccc13)C2 (stereo not shown) [granisetron]
two-electrode voltage clamp in oocytes, inhibition of serotonin-induced current [2]: ~ 1 nM

Cc1[nH]cnc1CN1CCc2c(c3ccccc3n2C)C1=O [alosetron]
potency for TEVC inhibition of serotonin currents [3]: ~ 0.1 nM

Cc1nccn1CC1CCc2c(c3ccccc3n2C)C1=O (stereo not shown) [ondansetron]
inhibition of serotonin currents in oocytes [4]: ~ 0.1 nM
